Literature values as cited in patent US20240397939A1, “COMPOSITIONS COMPRISING DIFFERENT DRIFT RETARDING AGENTS” (BAYER CROPSCIENCE LP, priority 2021, published 2024).

Settings: known HLB value, estimation by Griffin's method

Row | HLB | Substance
1 | 15 | Polysorbate 80 (polyoxyethylene sorbitan monooleate) [Tween® 80]
2 | 4.3 | Sorbitan monooleate [Span® 80]
